The subject of one series is Meloidogyne incognita. The experiment in a line: Meloidogyne incognita test (MELGIN). The following applies: application rate of 20 ppm; after 14 days, by formation of galls. It counts as in vivo. The protocol: Meloidogyne Incognita Test (MELGIN)
• Solvent: 125.0 parts by weight of acetone
To produce an appropriate active ingredient formulation, 1 part by weight of active ingredient is mixed with the specified amounts of solvent and the concentrate is diluted to the desired concentration with water.
Vessels are filled with sand, active ingredient solution, an egg/larvae suspension of the southern root-knot nematode (Meloidogyne incognita) and lettuce seeds. The lettuce seeds germinate and the plants develop. The galls develop on the roots
After 14 days, the nematicidal efficacy in % is determined by the formation of galls. 100% means that no galls have been found; 0% means that the number of galls on the treated plants corresponds to the untreated control.
In the case of `CCC(C)Oc1nn(-c2cc(SCC(F)(F)F)c(C)cc2F)c(=O)n1C1CC1` (centres unmarked) [Example 140], the nematicidal efficacy is 90%.
On the same count and under the same terms, then `CCCCOc1nn(-c2cc([S+]([O-])CC(F)(F)F)c(C)cc2F)c(=O)n1C` (centres unmarked) [Example 146], with 90%; and `Cc1cc(F)c(-n2nc(OCC(C)(C)C)n(C)c2=O)cc1SCC(F)(F)F` [Example 150], with 90%; and `Cc1cc(F)c(-n2nc(OCC(F)(F)F)n(C)c2=O)cc1[S+]([O-])CC(F)(F)F` (centres unmarked) [Example 160], with 100%.
On the same count and under the same terms, then `CC(CC(C)C)=Nn1c(C)nn(-c2cc(SCC(F)(F)F)c(C)cc2F)c1=O` [Example 202], with 100%; and `Cc1cc(F)c(-n2nc(C(F)(F)F)n(N(C)C)c2=O)cc1[S+]([O-])CC(F)(F)F` (centres unmarked) [Example 213], with 90%; and `Cc1cc(F)c(-n2nc(C(F)(F)F)n(N(C)C)c2=O)cc1SCC(F)(F)F` [Example 214], with 90%.
Same read-out and setting: then `Cc1cc(F)c(-n2nnn(CC(F)(F)F)c2=O)cc1SCC(F)(F)F` [Example 304], with 100%; and `Cc1cc(F)c(N2CC(OCc3ccccc3)=CC2=O)cc1[S+]([O-])CC(F)(F)F` (centres unmarked) [Example 323], with 90%.
On to `Cc1cc(F)c(N2CC(OCC3CC3)=CC2=O)cc1SCC(F)(F)F` [Example 331], for which the nematicidal efficacy came to 90%.
On the same count and under the same terms, then `Cc1cc(F)c(N2CC(OCC3CC3)=CC2=O)cc1[S+]([O-])CC(F)(F)F` (centres unmarked) [Example 332], with 90%; and `COc1nn(-c2cc([S+]([O-])CC(F)(F)F)c(C)cc2F)c(=O)n1CC(F)(F)F` (centres unmarked) [Example 415], with 100%.
The same measure, in the same setting: then `Cc1cc(F)c(-n2nnn(CC(F)(F)C(F)(F)F)c2=O)cc1SCC(F)(F)F` [Example 444], with 90%; and `CCc1nn(-c2cc(SCC(F)(F)F)c(C)cc2F)c(=S)n1C1CC1` [Example 502], with 90%.

The next series has as its system Boophilus microplus. The experiment in a line: Boophilus microplus injection test (BOOPMI Inj). It counts as in vivo. The following applies: application rate of 20 μg/animal, assessed after 7 days by laying of fertile eggs. The essentials: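 Engorged adult female ticks (5 per test) injected in the abdomen with 1 μl of compound solution in DMSO, then held in a climate-controlled room. Efficacy scored after 7 days from fertile egg laying, with 100% meaning no fertile eggs and 0% all eggs fertile.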
For `Cc1cc(F)c(-n2nc(OCC(F)(F)F)n(C)c2=O)cc1[S+]([O-])CC(F)(F)F` (centres unmarked) [Example 160], the efficacy was found to be 100%.
For `COc1nn(-c2cc([S+]([O-])CC(F)(F)F)c(C)cc2F)c(=O)n1CC(F)(F)F` (centres unmarked) [Example 415], the efficacy is reported as 100%.

The test system of a further series is Tetranychus urticae. As to the kind of experiment: Tetranychus urticae spray test, OP-resistant (TETRUR). Type of series: in vivo. The following applies: application rate of 500 g/ha; after 6 days. Put shortly:
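Bean leaf discs infested with all stages of an OP-resistant Tetranychus urticae strain sprayed with compound in acetone/DMF with alkylaryl polyglycol ether emulsifier, diluted in water. Efficacy in % scored after 6 days; 100% means all mites killed.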
On to `CCC(C)Oc1nn(-c2cc(SCC(F)(F)F)c(C)cc2F)c(=O)n1C1CC1` (centres unmarked) [Example 140], for which the efficacy was found to be 100%.
Same read-out and setting: then `CCCCOc1nn(-c2cc([S+]([O-])CC(F)(F)F)c(C)cc2F)c(=O)n1C` (centres unmarked) [Example 146], with 100%; and `Cc1cc(F)c(-n2nc(OCC(C)(C)C)n(C)c2=O)cc1SCC(F)(F)F` [Example 150], with 100%.
On to `Cc1cc(F)c(-n2nc(OCC(F)(F)F)n(C)c2=O)cc1[S+]([O-])CC(F)(F)F` (centres unmarked) [Example 160], for which the efficacy is 100%.
For `CC(CC(C)C)=Nn1c(C)nn(-c2cc(SCC(F)(F)F)c(C)cc2F)c1=O` [Example 202], the efficacy stood at 100%.
On to `Cc1cc(F)c(-n2nc(C(F)(F)F)n(N(C)C)c2=O)cc1[S+]([O-])CC(F)(F)F` (centres unmarked) [Example 213], for which the efficacy stood at 90%.
Same read-out and setting: then `Cc1cc(F)c(-n2nnn(CC(F)(F)F)c2=O)cc1SCC(F)(F)F` [Example 304], with 100%; and `Cc1cc(F)c(N2CC(OCC3CC3)=CC2=O)cc1SCC(F)(F)F` [Example 331], with 90%.
As for `Cc1cc(F)c(N2CC(OCC3CC3)=CC2=O)cc1[S+]([O-])CC(F)(F)F` (centres unmarked) [Example 332], the efficacy was 90%.
For `COc1nn(-c2cc([S+]([O-])CC(F)(F)F)c(C)cc2F)c(=O)n1CC(F)(F)F` (centres unmarked) [Example 415], the efficacy was 90%.
The same measure, in the same setting: then `Cc1cc(F)c(-n2nnn(CC(F)(F)C(F)(F)F)c2=O)cc1SCC(F)(F)F` [Example 444], with 100%.
The same measure, in the same setting: then `CCc1nn(-c2cc(SCC(F)(F)F)c(C)cc2F)c(=S)n1C1CC1` [Example 502], with 90%.

The test system of another series is Phaedon cochleariae. The experiment in a line: Phaedon cochleariae spray test (PHAECO). It counts as in vivo. As to conditions: application rate of 500 g/ha; after 7 days. Here is the method:
Phaedon cochleariae—Spray Test (PHAECO)
• Solvent: 78.0 parts by weight of acetone • 1.5 parts by weight of dimethylformamide • Emulsifier: 0.5 part by weight of alkylaryl polyglycol ether
To produce an appropriate active ingredient formulation, 1 part by weight of active ingredient is mixed with the specified amounts of solvent and emulsifier, and the concentrate is diluted to the desired concentration with emulsifier-containing water.
Discs of Chinese cabbage leaves (Brassica pekinensis) are sprayed with an active ingredient formulation of the desired concentration and, after drying, populated with larvae of the mustard beetle (Phaedon cochleariae).
After 7 days, the efficacy in % is determined 100% means that all beetle larvae have been killed; 0% means that none of the beetle larvae have been killed.
The molecule `Cc1cc(F)c(N2CC(OCC3CC3)=CC2=O)cc1SCC(F)(F)F` [Example 331] registered an efficacy of 83%.
Still for that read-out and setting: then `Cc1cc(F)c(N2CC(OCC3CC3)=CC2=O)cc1[S+]([O-])CC(F)(F)F` (centres unmarked) [Example 332], with 83%; and `CCc1nn(-c2cc(SCC(F)(F)F)c(C)cc2F)c(=S)n1C1CC1` [Example 502], with 83%.

Test system in the next series: not listed separately
The experiment in a line: log P by HPLC (OECD Guideline 117), method [b] neutral range. The following applies: HPLC, method [b] neutral range. It counts as physicochemical. Here is the method: (§1) The log P values were determined analogously to OECD Guideline 117 (EC Directive 92/69/EEC) by HPLC (high-performance liquid chromatography) using reversed-phase columns (C 18), by the following methods:
[b] The LC-MS determination in the neutral range is effected at pH 7.8 with 0.001 molar aqueous ammonium hydrogencarbonate solution and acetonitrile as eluents; linear gradient from 10% acetonitrile to 95% acetonitrile.
For the molecule `CCC(C)Oc1nn(-c2cc(SCC(F)(F)F)c(C)cc2F)c(=O)n1C1CC1` (centres unmarked) [Example 140], the “logP[b]” value stood at 4.30.
Regarding `CCCCOc1nn(-c2cc([S+]([O-])CC(F)(F)F)c(C)cc2F)c(=O)n1C` (centres unmarked) [Example 146], the “logP[b]” value is given as 2.85.
Still for that read-out and setting: then `Cc1cc(F)c(-n2nc(OCC(C)(C)C)n(C)c2=O)cc1SCC(F)(F)F` [Example 150], with 4.29; and `Cc1cc(F)c(-n2nc(OCC(F)(F)F)n(C)c2=O)cc1[S+]([O-])CC(F)(F)F` (centres unmarked) [Example 160], with 2.38.
For the molecule `CC(CC(C)C)=Nn1c(C)nn(-c2cc(SCC(F)(F)F)c(C)cc2F)c1=O` [Example 202], the “logP[b]” value stood at 3.98.
Still for that read-out and setting: then `Cc1cc(F)c(-n2nc(C(F)(F)F)n(N(C)C)c2=O)cc1[S+]([O-])CC(F)(F)F` (centres unmarked) [Example 213], with 3.09.
Still for that read-out and setting: then `Cc1cc(F)c(-n2nc(C(F)(F)F)n(N(C)C)c2=O)cc1SCC(F)(F)F` [Example 214], with 4.15; and `Cc1cc(F)c(-n2nnn(CC(F)(F)F)c2=O)cc1SCC(F)(F)F` [Example 304], with 3.48; and `Cc1cc(F)c(N2CC(OCc3ccccc3)=CC2=O)cc1[S+]([O-])CC(F)(F)F` (centres unmarked) [Example 323], with 2.81.
For `Cc1cc(F)c(N2CC(OCC3CC3)=CC2=O)cc1SCC(F)(F)F` [Example 331], the “logP[b]” value was found to be 3.58.
On the same count and under the same terms, then `Cc1cc(F)c(N2CC(OCC3CC3)=CC2=O)cc1[S+]([O-])CC(F)(F)F` (centres unmarked) [Example 332], with 2.50.
Regarding `COc1nn(-c2cc([S+]([O-])CC(F)(F)F)c(C)cc2F)c(=O)n1CC(F)(F)F` (centres unmarked) [Example 415], the “logP[b]” value is recorded as 2.45.
Same read-out and setting: then `Cc1cc(F)c(-n2nnn(CC(F)(F)C(F)(F)F)c2=O)cc1SCC(F)(F)F` [Example 444], with 4.04; and `CCc1nn(-c2cc(SCC(F)(F)F)c(C)cc2F)c(=S)n1C1CC1` [Example 502], with 3.65.

Test system in the next series: not listed separately
As to the kind of experiment: log P by HPLC (OECD Guideline 117), method [a] acidic range. It counts as physicochemical. The following applies: HPLC, method [a] acidic range. The protocol: as §1
[a] The LC-MS determination in the acidic range is effected at pH 2.7 with 0.1% aqueous formic acid and acetonitrile (contains 0.1% formic acid) as eluents; linear gradient from 10% acetonitrile to 95% acetonitrile.
Take `CCC(C)Oc1nn(-c2cc(SCC(F)(F)F)c(C)cc2F)c(=O)n1C1CC1` (centres unmarked) [Example 140]: the “logP[a]” value was 4.36.
Turning to `CCCCOc1nn(-c2cc([S+]([O-])CC(F)(F)F)c(C)cc2F)c(=O)n1C` (centres unmarked) [Example 146], the “logP[a]” value is recorded as 2.90.
On the same count and under the same terms, then `Cc1cc(F)c(-n2nc(OCC(C)(C)C)n(C)c2=O)cc1SCC(F)(F)F` [Example 150], with 4.35.
For `Cc1cc(F)c(-n2nc(OCC(F)(F)F)n(C)c2=O)cc1[S+]([O-])CC(F)(F)F` (centres unmarked) [Example 160], the “logP[a]” value turned out to be 2.52.
Still for that read-out and setting: then `CC(CC(C)C)=Nn1c(C)nn(-c2cc(SCC(F)(F)F)c(C)cc2F)c1=O` [Example 202], with 4.06.
For the molecule `Cc1cc(F)c(-n2nc(C(F)(F)F)n(N(C)C)c2=O)cc1[S+]([O-])CC(F)(F)F` (centres unmarked) [Example 213], the “logP[a]” value is listed as 3.16.
Still for that read-out and setting: then `Cc1cc(F)c(-n2nc(C(F)(F)F)n(N(C)C)c2=O)cc1SCC(F)(F)F` [Example 214], with 4.24.
The same measure, in the same setting: then `Cc1cc(F)c(-n2nnn(CC(F)(F)F)c2=O)cc1SCC(F)(F)F` [Example 304], with 3.61.
On the same count and under the same terms, then `Cc1cc(F)c(N2CC(OCc3ccccc3)=CC2=O)cc1[S+]([O-])CC(F)(F)F` (centres unmarked) [Example 323], with 2.87.
For `Cc1cc(F)c(N2CC(OCC3CC3)=CC2=O)cc1SCC(F)(F)F` [Example 331], the “logP[a]” value was 3.64.
The same measure, in the same setting: then `Cc1cc(F)c(N2CC(OCC3CC3)=CC2=O)cc1[S+]([O-])CC(F)(F)F` (centres unmarked) [Example 332], with 2.55; and `COc1nn(-c2cc([S+]([O-])CC(F)(F)F)c(C)cc2F)c(=O)n1CC(F)(F)F` (centres unmarked) [Example 415], with 2.48.
On the same count and under the same terms, then `Cc1cc(F)c(-n2nnn(CC(F)(F)C(F)(F)F)c2=O)cc1SCC(F)(F)F` [Example 444], with 4.09; and `CCc1nn(-c2cc(SCC(F)(F)F)c(C)cc2F)c(=S)n1C1CC1` [Example 502], with 3.69.

Source of the values: US9981940B2, “Aryl sulfide derivatives and aryl sulfoxide derivatives as acaricides and insecticides” (BAYER CROPSCIENCE AKTIENGESELLSCHAFT, priority 2013, dated 2018).
